US20260053767A1, “Hepatoprotective Compositions And Methods” (Jemyll, Ltd., priority 2022, published 2026)
Entries after “also recorded” stand apart in the source; their conditions may differ.

Tests used:
[1] = NIDDM patients, intravenous infusion; cited from earlier work
[2] = relatively large oral doses (>20 g); cited from earlier work
Wistar rats [3] = assay: Study 1 (prevention): oral glucose tolerance test and HOMA-IR; assay type: in vivo; details: Study 1: 1% (w/vol) in drinking water with high fat-high cholesterol diet for 4 weeks
Protocol: (§1) Study design: All animal procedures were approved by the Catholic University of Rome Institutional Animal Care Committee. The design of the studies is summarized in FIG. 18, Panels A and B. • Study 1: Twenty adult Wistar rats, aged 8-10 weeks, were included in the study. The rats were housed in individual cages at 22° C. with 12-h light cycles and had ad libitum access to food and water. Rats were fed a high-fat high-cholesterol diet (44% Carbohydrate, 14% Protein, 42% fat+0.2% Cholesterol) (Mucedola, Milan, IT) for four weeks in the presence or absence of 1% Dodecanedioic acid, sodium salt (w/vol) dissolved in the water (FIG. 18, Panel A). Body weight and food/water intake were monitored weekly. • Study 2: Twenty adult Wistar rats, aged 8-10 weeks, were included in the study. The rats were housed in individual cages at 22° C. with 12-h light cycles and had ad libitum access to food and water. Rats were fed a high-fat high-cholesterol diet (44% Carbohydrate, 14% Protein, 42% fat+0.2% Cholesterol) (Mucedola, Milan, IT). After nine weeks of diet, rats were randomly assigned to one of the following groups: Four weeks of high-fat high-cholesterol diet or four weeks of high-fat high-cholesterol diet and 1% Dodecanedioic acid, sodium salt (w/v) dissolved in the water FIG. 18, Panel B). Body weight and food/water intake were monitored weekly.
Oral Glucose Test Tolerance (OGTT): All animals underwent an OGTT at the end of the study. After an overnight fasting, the rats received a 50% D-glucose solution (1 g/kg body weight) by oral gavage. Blood samples were taken by tail bleeding and collected in EDTA tubes. All blood samples were immediately centrifuged, and plasma divided into appropriate subsamples and stored at −20° C. for further analysis. Blood glucose and was measured at 0, 20, 40, 60, 80, 100 and 120 minutes, while plasma insulin at 0, 60 and 120 minutes. Blood glucose levels were measured by glucometer (Accu-Chek, Roche Diagnostics Division, Grenzacherstrasse, CH). Plasma insulin was measured by ELISA (EMD Millipore Corporation, Billerica, MA), with a sensitivity of 0.1 ng/ml and an intra-and inter-assay precision of 1.9% and 7.6%, respectively.
DODA administration prevents the onset of insulin resistance and NASH: To test the hypothesis that DODA could prevent the development of diet-induced insulin resistance and NASH, the inventors administered 1% (w/vol) of DODA in the drinking water together with a high fat-high cholesterol diet for 4 weeks. Rats fed high fat-high cholesterol diet without the administration of DODA were included as controls.
Panels A and B. • Study 1: Twenty adult Wistar rats, aged 8-10 weeks, were included in the study. The rats were housed in individual cages at 22° C. with 12-h light cycles and had ad libitum access to food and water. Rats were fed a high fat high cholesterol diet (44% Carbohydrate, 14% Protein, 42% fat+0.2% Cholesterol) for 4 weeks in the presence or absence of 1% Dodecanedioic acid, sodium salt dissolved in the water (FIG. 25, Panel A). Body weight and food/water intake were monitored weekly. • Study 2: Twenty adult Wistar rats, aged 8-10 weeks, were included in the study. The rats were housed in individual cages at 22° C. with 12-h light cycles and had ad libitum access to food and water. Rats were fed a high fat-high cholesterol diet (44% Carbohydrate, 14% Protein, 42% fat+0.2% Cholesterol). […] Body weight and food/water intake were monitored weekly. […]

Wistar rats [4] = assay: Study 1 (prevention): liver histology (H&E, Oil Red O, Sirius Red); assay type: in vivo; details: Study 1, 4 weeks, 1% (w/vol) in drinking water
Protocol: as §1
Histology: The day of the sacrifice fresh portions of liver were cut, embedded in cryo-embedding media (OCT) and snap frozen in liquid nitrogen. Biopsies were cut using a cryostat (5 μm) and slides stored a −20° C. until analyses.
Hematoxylin and Eosin staining was performed to assess hepatic steatosis. Slides were fixed 10 minutes with 95% ethanol, stained with hematoxylin for 1 minute, washed with distilled water, stained with eosin for 30 seconds and cleared in two changes of pure ethanol and two changes of xylene.
Oil Red O was performed to assess intracellular lipid accumulation. Slides were fixed overnight with 4% formalin, stained with Oil Red O solution for 1 hour. Counterstain was performed with Hematoxylin solution.
Sirius Red was used to identify hepatic fibrosis. Slides were fixed 10 minutes with 4% formalin, stained in Direct red 80 for 1 hour, washed in acidified water and dehydrate in 3 changes of absolute ethanol. After brief clearing in xylene, the slides were mounted in a resinous medium. Images were taken with an optical microscope (Leica DM2000, Wetzlar, DE). […]
Panels A and B. • Study 1: Twenty adult Wistar rats, aged 8-10 weeks, were included in the study. […] Body weight and food/water intake were monitored weekly. • Study 2: Twenty adult Wistar rats, aged 8-10 weeks, were included in the study. […] Body weight and food/water intake were monitored weekly. […]

NAMPT = NAMPT enzyme levels in liver cells; assay type: cell-based; details: AML-12 liver cells
From the text: To that end, the inventors used endothelial cells (EOMA cells) and liver cells (AML-12 cells) in vitro and quantified various markers in response to exposure of the cells to environmental challenge in the presence and absence of DDA at low concentrations. Unless indicated otherwise, the DDA concentration in the in vitro experiments was 5 mcg per microliter. More specifically, the inventors measured p-H2AX protein levels as a marker for DNA damage, PGC-1α protein levels as a marker for mitochondrial biogenesis, NAMPT enzyme levels as a marker for potential for NAD+ production, and total antioxidant capacity as a marker of cellular health. In addition, the inventors also measured global SIRT activity as a gauge of activity for all SIRT enzymes, and in particular SIRT1 enzyme levels as markers for autophagy and various beneficial processes associated with a caloric restricted diet, and SIRT3 levels as markers for mitochondrial function and longevity.
To evaluate the effect of DDDA on energy metabolism, and particularly on NAD+ synthesis, the inventors also tested the effect of DDDA on NAMPT in liver cells.

## O=C(O)CCCCCCCCCCC(=O)O [DDDA, dodecanedioic acid]
[1]
  plasma glucose levels during infusion: significantly decreased
[2]
  effect on blood glucose in healthy individuals: no corresponding effects
  effect on blood glucose in individuals diagnosed with NIDDM: hypoglycemic effect
Wistar rats [3]; vs controls
  blood glucose concentrations during an oral glucose tolerance test: decrease
  hepatic insulin resistance assessed by HOMA-IR: decreased
  plasma insulin concentrations during an oral glucose tolerance test: decrease
Wistar rats [3]; listed as C12
  diet-induced insulin resistance and NASH (overall, prevention): able to prevent diet-induced insulin resistance and NASH; also recorded: prevents diet-induced insulin resistance and NASH
Wistar rats [3]; listed as DODA
  diet-induced insulin resistance and NASH (overall, prevention): able to prevent diet-induced insulin resistance and NASH; also recorded: prevents diet-induced insulin resistance and NASH
Wistar rats [4]
  diet-induced NASH (histology, prevention): prevents diet-induced NASH
  fibrosis (Picro Sirius Red): reduced
  hepatic steatosis (Hematoxylin and Eosin): reduced
  neutral lipids deposition (Oil Red O): reduced
NAMPT; 6 hours, p=0.001
  NAMPT enzyme levels: significantly increased
NAMPT; 24 hours, pattern relative to 6 hours
  NAMPT enzyme levels: paradoxically reversed
